One series has as its target T1, PYL2 + HAB1 (Arabidopsis thaliana, UniProt O80992).
T1 construct: made in house; host or cells: E. coli BL21 (DE3)
T1 sequence (O80992 14-188 limits assumed): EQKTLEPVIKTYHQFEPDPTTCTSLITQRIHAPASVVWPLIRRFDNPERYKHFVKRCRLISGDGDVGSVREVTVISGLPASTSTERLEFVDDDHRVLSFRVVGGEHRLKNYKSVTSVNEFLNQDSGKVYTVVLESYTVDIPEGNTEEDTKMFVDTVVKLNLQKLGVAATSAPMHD
T1 sequence (Q9CAJ0 172-511 partner limits assumed): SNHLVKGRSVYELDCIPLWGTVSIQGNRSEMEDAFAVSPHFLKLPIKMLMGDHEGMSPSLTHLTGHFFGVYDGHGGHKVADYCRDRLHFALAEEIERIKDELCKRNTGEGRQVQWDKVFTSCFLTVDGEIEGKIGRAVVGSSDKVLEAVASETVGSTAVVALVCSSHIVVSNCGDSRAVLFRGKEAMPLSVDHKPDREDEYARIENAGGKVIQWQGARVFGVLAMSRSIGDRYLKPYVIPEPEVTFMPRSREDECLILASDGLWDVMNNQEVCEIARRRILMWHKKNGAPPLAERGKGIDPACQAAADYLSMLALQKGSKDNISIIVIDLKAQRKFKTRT
Put plainly: AlphaScreen experiment, PYL2 + HAB1. As to conditions: number in brackets; read-out: Half maximum effect concentration EC50 (PYL2 + HAB1). The class given is binding. On the procedure: (§1) After incubating for 1.5 hours at room temperature in the dark, it was placed into an Envision Plate Reader (available from Perkin Elmer) under the programmed AlphaScreen procedure for readings.
On the technique in general: Alpha assays give light when donor and acceptor beads are brought close together.

The target in another series is T2, PYR1 + HAB1 (Arabidopsis thaliana, UniProt O49686).
T2 sequence (O49686 1-191): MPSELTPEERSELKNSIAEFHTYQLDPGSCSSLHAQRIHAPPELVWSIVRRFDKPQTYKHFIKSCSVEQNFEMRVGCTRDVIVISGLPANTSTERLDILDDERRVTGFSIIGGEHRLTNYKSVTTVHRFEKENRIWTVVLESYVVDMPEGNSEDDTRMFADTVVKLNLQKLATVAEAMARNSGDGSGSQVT
T2 sequence (Q9CAJ0 172-511 partner): T1 sequence (Q9CAJ0 172-511 partner limits assumed)
Put plainly: AlphaScreen experiment, PYR1 + HAB1. The class given is binding. The settings on record: column 2; number in brackets; read-out: Half maximum effect concentration EC50 (PYR1 + HAB1). As for the experimental part: as §1

Series [1] has as its system soybean GmPYL3 and GmPYL6 + Arabidopsis AtHAB1. Put plainly: AlphaScreen experiment with soybean GmPYL receptors. Type of series: binding. As to conditions: FIG. 9. As for the experimental part:
as §1

The subject of series [2] is Arabidopsis thaliana Col-0 ecotype seeds. Put plainly: Seed germination, Col-0. The class given is in vivo. As to conditions: 1 μM. The source says:
Two lines of plant were sown simultaneously on a single medium of 6 cm diameter, with 15 seeds sown for each line and 4 replicates for each compound. […]

The subject of series [3] is Arabidopsis ABA synthesis defective mutant aba2-1. The class given is in vivo, Arabidopsis thaliana. As to conditions: 5 μM sprayed; after 4 days; vs DMSO.
The next series relates to soybean. Put plainly: Soil drought experiment, soybean. Type of series: in vivo. As to conditions: 50 μM. On the procedure:
Only one plant was contained in each pot. All soybean plants were long-day cultured at 26° C. Watering was stopped after the plant had three leaves in each of three groups of leaves and the plants with consistent growth were selected for drought treatment. As for corn, watering was stopped during the small trumpet period for drought treatment. […] After a week, the watering was resumed. Soybeans and cotton used in leaf transpiration experiments for compound 0720B were also used for soil drought experiments. Each pot contained only one plant and was filled with the same weight of soil to reduce experimental errors. All of the soybean plants were grown at 26° C. for long-day culture. 16 days after seeding, watering was stopped and the plants with consistent growth were selected for drought treatment. […] Cotton drought experiments were similar to that of the soybean. 23 days after seeding, the watering was stopped, and the plants with consistent growth were selected for drought treatment. […] After 10 days of drought, the photos were taken.

For series [4], the system named is Salmonella typhimurium TA98 and TA100. Put plainly: Bacterial reverse mutation experiment. Type of series: cell-based. The settings on record: all doses; -S9. As for the experimental part:
(§2) The test substance used in the experiment was AMX compound 1127.
Two strains of Salmonella typhimurium, TA98 and TA100, were used in the bacterial reverse mutation experiment. The experiment was carried out by using standard plate incorporation method under a condition of non-metabolic activation system (−S9). There were totally 7 doses of […] as well as a negative control and a positive control.

Series [5] deals with Chinese hamster lung cell (CHL). As to the kind of experiment: In vitro micronucleus experiment. The class given is cell-based. As to conditions: -S9; 24 hours. On the procedure: as §2
Firstly, CHL cells used in in vitro micronucleus test were tested in IC50 determination experiment. According to IC50 determination results, in vitro micronucleus test dosage was set. 4 doses of 1 μg/ml, 20 μg/ml, 30 μg/ml and 40 μg/ml were set in total, while a negative control and a positive control were also set. The CHL cells were treated for 24 hours under the condition of −S9 and sections were prepared.
The numbers of monocytes, binucleate cells and multinucleated cells in 500 cells per dose were counted and the cytokinesis-block proliferation index (CBPI) and cytotoxicity at each dose were calculated.

Series [6] is described as follows: Maximum tolerated dose, single oral gavage. The class given is in vivo. The settings on record: both sexes, rat, in vivo, 5000 mg/kg, SD rats. On the procedure:
as §2
(§3) In the maximum tolerated dose of tested substance in single oral gavage experiment in SD rat, 8 SD rats were randomly divided into two groups, with […]. After a single oral gavage administration, rats were observed continuously for 14 days and dissected on the 15th day. The following indicators were evaluated: clinical observation, body weight and pathology examination (macroscopic morphology).

A further series has as its system SD rat. Put plainly: Maximum tolerated dose, single oral gavage. Type of series: in vivo. The settings on record: 5000 mg/kg, male and female rats. On the procedure:
as §2, §3

From US10842151B2, “Small molecule compound for enhancing plant stress resistance” (SHANGHAI INSTITUTES FOR BIOLOGICAL SCIENCES, CHINESE …, priority 2015, dated 2020) come the findings set out here.

In general, MTD refers to the largest dose that counted as tolerated. Read a low MTD as a narrow tolerated range. For `CCCN1C(=O)CCc2cc(NS(=O)(=O)Cc3c(F)c(F)c(C)c(F)c3F)ccc21` [Compound 1127], the EC50 at PYL2 + HAB1 was found to be 0.02 µM; on PYR1 + HAB1 it was 0.015 µM. The “affinities for soybean GmPYL proteins compared with ABA” value in series [1] was “significantly higher affinities”. Besides, the “inhibition effect on germination of Col-0 ecotype seeds compared with control compound” value in series [2] is reported as “significantly better inhibition effect”. In addition, the “germination of Col-0 ecotype seeds” value in series [2] (six days after seeding) is recorded as “could still inhibit germination of Col-0 ecotype seeds”. For the same molecule, the leaf temperature entry in [3] is recorded as “still higher than that in the control group”. In addition, the growth result in the series on soybean (a week of drought, one month after rewatering) was “grew significantly better than the plants sprayed with DMSO (control) and sprayed with 50 μM ABA”. Besides, the survival rate entry in the series with soybean (after rewatering) was “higher than that in the above two groups”. Also, the “bacterial toxicity to TA98 and TA100 strains” value in series [4] was “no obvious bacterial toxicity”. Besides, in series [5], the “micronuclei rate in CHL cells” value is recorded as “did not induce an increased micronuclei rate”. In addition, the MTD at 14 days in series [6] was over 5000 mg/kg. For the same molecule, the “clinical observation, body weight and macroscopic morphological observation of tissues/organs” value in the series with SD rat is “no drug-related changes were observed”.
